Results published in BindingDB's records for patent US20240383915 (Genentech, 2024).

Biological target: GTPase KRas (Homo sapiens, UniProt P01116)
Assay: KRAS Biochemical Assay
Experimental: KRAS Biochemical Assay—BODIPY-GDP Exchange TR-FRET. Biochemical compound potencies were assessed by evaluating inhibition of SOS1-mediated nucleotide exchange in KRAS G12D. The SOS1-promoted exchange of fluorescently-labeled GDP (BODIPY-GDP) was monitored by time-resolved fluorescence resonance energy transfer (TR-FRET). Compounds solubilized in DMSO were dispensed as concentration series into 384-well white assay plates. […] The reaction was initiated with the addition of 5 μL of 3 nM recombinant human SOS1 and 300 nM BODIPY-GDP in assay buffer. […] The TR-FRET ratio was determined as the fluorescence at 520 nm divided by the fluorescence at 490 nm multiplied by 10,000. […] The normalized TR-FRET results were plotted against compound concentration, and the data fit to a 4-parameter Hill equation to determine the IC50 values.

GTPase KRas, sequence (P01116 whole entry): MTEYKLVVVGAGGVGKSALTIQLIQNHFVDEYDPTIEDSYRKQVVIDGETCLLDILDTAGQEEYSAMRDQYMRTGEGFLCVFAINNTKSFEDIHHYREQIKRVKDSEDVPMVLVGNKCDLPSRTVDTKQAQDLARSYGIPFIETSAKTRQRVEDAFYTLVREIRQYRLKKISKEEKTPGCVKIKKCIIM

IC50: 0.87 nM
SMILES: Cc1cc(N)nc(-c2c(Cl)c3c4c(nc(OCC56CC(CO5)C6)nc4c2F)N([C@H](C)c2cccnc2N)CCO3)c1C(F)(F)F [US20240383915, Example 143]
